Data published in patent US20050026833A1, “PSP-94: use for treatment of hypercalcemia and bone metastasis” (priority 2001, published 2005).

Experiments:
PTHrP = PTHrP immunohistochemistry of skeletal metastasis (vertebrae); assay type: in vivo, male Copenhagen rats; conditions: 100.0 ug/kg PCK3145, day 10, vs vehicle
Method: For example, vertebral columns were fixed and decalcified for a period of 3 weeks. Vertebral column samples were dewaxed in xylene, and rehydrated through a graded alcohol series (100%-70%). For determining the level of expression of PTHrP by skeletal metastasis, the sections were incubated in 1% normal goat serum (Vector Laboratories Inc., Burlingame, Calif., USA) for 30 min at room temperature before treatment with the primary antibody (polyclonal antiserum against PTHrP (1-34) from rabbit) at 1: 200 dilution overnight at 4° C. Biotinylated goat anti-rabbit IgG (Vector Laboratories Inc., Burlingame, Calif., USA) was used as the secondary antibody at 1:200 for 30 min at room temperature. […]
Computer-Assisted Image Analysis. Computer-assisted image analysis was carried out to quantify PTHrP immunostaining and determination of % TV/BV in the vertebral sections. […] The threshold was set by determining the positive staining of control sections and was used to automatically analyze all recorded images of all samples that were stained in the same session under identical conditions. The area of stained regions was calculated automatically by the software in each microscopic field. Pixel counts of the immunoreaction product were calculated automatically and were given as total density of the integrated immunostaining over a given area. […]

Mat Ly Lu-PTHrP cells = experiment: DNA fragmentation in vitro (agarose gel); assay type: cell-based, rat; conditions: PSP-94 10.0 ug/ml, after 72 hours of treatment
Method: In order to investigate the underlying molecular mechanism of action of PSP-94 in reducing tumor growth Mat Ly Lu-PTHrP cells were cultured in the presence of PSP-94 (10.0 ug/ml) or vehicle alone for different time intervals. Genomic DNA was collected from cells cultured in the presence of vehicle alone or PSP-94. Briefly, for DNA fragmentation, Mat Ly Lu-PTHRP cells were plated in 6 well plates (Falcon Plastics, Oxnard, Calif.). Cells were treated with PSP-94 (10.0 ug/ml) for up to 72 hours. DNA from treated cells incubated with PSP-94 and cells treated with vehicle alone was collected using a Phenol:Choloroform:lsoamyl alcohol solution (50:48:2). Equal amounts of DNA were subjected to gel electrophoresis on a 2% agarose gel. DNA fragmentation was visualised by UV light using a transilluminator. More particularly, results presented in FIG. 14A show Mat Ly Lu-PTHrP cells cultured in the presence of vehicle alone or PSP-94 (10.0 ug/ml) for up to […]. DNA was isolated and run in an agarose gel, as described above.

With “E W Q T D N C E T C T C Y E T (EWQTDNCETCTCYET; PCK3145 (polypeptide 31-45))” the “PTHrP staining in Mat Ly Lu-PTHrP cells of the vertebral column (total density)” value (PTHrP) was “significantly lower”.

B1: PSP-94: prostate secretory protein of 94 amino acids; native human seminal plasma PSP-94 (protein)
chain: SCYFIPNEGVPGDSTRKCMDLKGNKHPINSEWQTDNCETCTCYETEISCCTLVSTPVGYDKDNCQRIFKKEDCKYIVVEKKDPKKTCSVSEWII
In the case of B1, the DNA fragmentation (Mat Ly Lu-PTHrP cells) is reported as “marked DNA fragmentation”.
